Experimental data: ChEMBL document CHEMBL1201862, “PubChem BioAssay data set” (2004)
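Five concentrations, 48 hours, 96-well plates. Abbreviation: GI50, concentration required for 50% inhibition of growth.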 Activity calls are given as the source filed them. Rule as the data show it: active = GI50 up to about 1.1 µM and inactive = higher.

Tests used:
Assay in all cases: inhibition of tumour cell growth, NCI panel, 48 h
UO-31 = test system: UO-31
SF-295 = test system: SF-295
ACHN = test system: ACHN
SK-MEL-2 = test system: SK-MEL-2
SK-MEL-5 = test system: SK-MEL-5
SNB-19 = test system: SNB-19
NCI-H522 = test system: NCI-H522
MDA-N = test system: MDA-N
SW-620 = test system: SW-620
OVCAR-4 = test system: OVCAR-4
K562 = test system: K562
MDA-MB-231 = test system: MDA-MB-231
OVCAR-5 = test system: OVCAR-5
MOLT-4 = test system: MOLT-4
NCI-H460 = test system: NCI-H460
HL-60 = test system: HL-60
CAKI-1 = test system: CAKI-1
M14 = test system: M14
HCT-116 = test system: HCT-116
Malme-3M = test system: Malme-3M

| Compound | GI50 (UO-31) | GI50 (SF-295) | GI50 (ACHN) | GI50 (SK-MEL-2) | GI50 (SK-MEL-5) | GI50 (SNB-19) | GI50 (NCI-H522) | GI50 (MDA-N) | GI50 (SW-620) | GI50 (OVCAR-4) | GI50 (K562) | GI50 (MDA-MB-231) | GI50 (OVCAR-5) | GI50 (MOLT-4) | GI50 (NCI-H460) | GI50 (HL-60) | GI50 (CAKI-1) | GI50 (M14) | GI50 (HCT-116) | GI50 (Malme-3M) |
| --- | --- | --- | --- | --- | --- | --- | --- | --- | --- | --- | --- | --- | --- | --- | --- | --- | --- | --- | --- | --- |
| CCCCC(=O)c1c(O)ccc2c(C)cc(=O)oc12 | 24.8 µM (inactive) | > 100 µM (inactive) | 96.6 µM (inactive) | 3.14 µM (inactive) | 53.5 µM (inactive) | > 100 µM (inactive) | 58.2 µM (inactive) | > 100 µM (inactive) | > 100 µM (inactive) | 69.8 µM (inactive) | > 100 µM (inactive) | 67.8 µM (inactive) | > 100 µM (inactive) | 77.1 µM (inactive) | 53.1 µM (inactive) | > 100 µM (inactive) | 68.9 µM (inactive) | > 100 µM (inactive) | > 100 µM (inactive) | 39.9 µM (inactive) |
| CNc1cccc(-c2cc(O)c3cc4c(cc3n2)OCO4)c1 | 0.509 µM (active) | 2.28 µM (inactive) | 0.883 µM (active) | 0.385 µM (active) | 0.0847 µM (active) | 0.432 µM (active) | 0.127 µM (active) | 0.0296 µM (active) | 0.283 µM (active) | > 20.7 µM (inactive) | 0.201 µM (active) | 0.407 µM (active) | 1.79 µM (inactive) | 0.581 µM (active) | 0.436 µM (active) | 0.198 µM (active) | 0.237 µM (active) | 0.224 µM (active) | 0.236 µM (active) | 0.168 µM (active) |
| O=C(O)C(C(=O)O)P(=S)(S)c1ccccc1 (stereo not given) | > 100 µM (inactive) | > 100 µM (inactive) | > 100 µM (inactive) | > 100 µM (inactive) | > 31.6 µM (inactive) | > 100 µM (inactive) | > 100 µM (inactive) | > 100 µM (inactive) | > 100 µM (inactive) | > 100 µM (inactive) | > 100 µM (inactive) | > 100 µM (inactive) | > 100 µM (inactive) | > 30.4 µM (inactive) | > 100 µM (inactive) | > 100 µM (inactive) | > 100 µM (inactive) | > 100 µM (inactive) | > 100 µM (inactive) | > 100 µM (inactive) |
| CC(C)(C)C1(COC(=O)c2ccc(N)cc2)COC1 | 56 µM (inactive) | 29.1 µM (inactive) | 78.7 µM (inactive) | > 100 µM (inactive) | 58.7 µM (inactive) | > 100 µM (inactive) | 47.6 µM (inactive) | 66.1 µM (inactive) | > 100 µM (inactive) | 32.7 µM (inactive) | 46.3 µM (inactive) | 52.1 µM (inactive) | > 100 µM (inactive) | 30.5 µM (inactive) | 48.4 µM (inactive) | 26.3 µM (inactive) | > 100 µM (inactive) | 61 µM (inactive) | 51.9 µM (inactive) | 89.7 µM (inactive) |
